Like-named read-outs stand apart in the source and are kept apart here. Each block holds one compound with its values, some of them ahead of it. Starred links: 1 amine or outer side, 2 acyl side, 3 side chain; linkers in the order of their positions; H or OH if unused. Positions of bridges follow the written chain, without caps; N, C: chain ends. Non-standard residues stand in square brackets, D forms with d. Residues, ends and D or L forms follow the SMILES beside them. *: point of attachment. NMeF = CN[C@@H](Cc1ccccc1)C(=O)O; NMeI = CC[C@H](C)[C@H](NC)C(=O)O; NMeβAla = CN(CCC(=O)[*:2])[*:1]; NMeL = CN[C@@H](CC(C)C)C(=O)O; NMeV = CN[C@H](C(=O)O)C(C)C; NMeA = CN[C@@H](C)C(=O)O; Piperidide = C1CCN(*)CC1; dNMeA = CN[C@H](C)C(=O)O; β3hA = C[C@H](N)CC(=O)O; Sar = CNCC(=O)O; tBu = CC(C)(C)*
Key:
[1] = Metabolic stability in human hepatic microsome; type: in vitro ADME; details: microsomes
[2] = PAMPA (parallel artificial membrane permeability assay); type: in vitro ADME; details: PAMPA
Procedure, shortened: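 Artificial membrane was 10% (w/v) egg lecithin plus 0.5% (w/v) cholesterol in dodecane on a PVDF filter. A 10 mM DMSO stock was added at 0.5% (v/v) to donor buffer (50 mM MOPSO, pH 6.5, 5.0% glycocholic acid). After 18 h at 37 °C, LC/MS or LC/UV gave donor and acceptor levels for Pe.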

[3] = pH 7.4, human hepatic microsome, NADPH(+), read-out: CL NADPH(+)
[4] = membrane permeation rate (Pe), 50 mM MOPSO buffer pH 6.5 with 5.0% glycocholic acid, 37° C., 18 hours, read-out: iPAMPA Pe

Compound: CC(C)C[C@H]1C(=O)N[C@@H](COC(C)(C)C)C(=O)N[C@@H]([C@@H](C)O)C(=O)N(C)[C@@H](Cc2ccccc2)C(=O)N(C)[C@@H](CC(C)C)C(=O)N[C@H](C(=O)N2CCCCC2)CC(=O)N[C@@H](C(C)C)C(=O)N1C [DP-748] (V[NMeL]S(tBu)T[NMeF][NMeL]D-Piperidide; lactam N-7)
microsomal CLint at 1 uM [1, 3]: 341 µL/min/mg
Papp at 18 hours, 50 µM [2, 4]: 45 ×10⁻⁶ cm/s

Compound: CC(C)C[C@H]1C(=O)N[C@@H]([C@@H](C)O)C(=O)N(C)[C@@H](Cc2ccccc2)C(=O)N[C@@H](COC(C)(C)C)C(=O)N[C@H](C(=O)N2CCCCC2)CC(=O)N[C@@H](C(C)C)C(=O)N(C)CC(=O)N1C [DP-749] (V[Sar][NMeL]T[NMeF]S(tBu)D-Piperidide; lactam N-7)
microsomal CLint at 1 uM [1, 3]: 56 µL/min/mg
Papp at 18 hours, 50 µM [2, 4]: 17 ×10⁻⁶ cm/s

Compound: CC(C)C[C@H]1C(=O)N[C@H](C(=O)N2CCCCC2)CC(=O)N(C)CCC(=O)N[C@@H]([C@@H](C)O)C(=O)N(C)CC(=O)N[C@@H](COC(C)(C)C)C(=O)N(C)[C@@H](Cc2ccccc2)C(=O)N1C [DP-750] ([NMeβAla]T[Sar]S(tBu)[NMeF][NMeL]D-Piperidide; lactam N-7)
microsomal CLint at 1 uM [1, 3]: 49 µL/min/mg
Papp at 18 hours, 50 µM [2, 4]: 13 ×10⁻⁶ cm/s

Compound: CC(C)C[C@@H]1NC(=O)[C@H](Cc2ccccc2)N(C)C(=O)[C@H](Cc2ccccc2)N(C)C(=O)[C@H]([C@@H](C)O)NC(=O)CN(C)C(=O)[C@H](C)NC(=O)C[C@@H](C(=O)N2CCCCC2)NC1=O [DP-751] (A[Sar]T[NMeF][NMeF]LD-Piperidide; lactam N-7)
microsomal CLint at 1 uM [1, 3]: 156 µL/min/mg
Papp at 18 hours, 50 µM [2, 4]: 18 ×10⁻⁶ cm/s

Compound: CC(C)C[C@@H]1NC(=O)[C@H]([C@@H](C)O)NC(=O)[C@@H]2CCCN2C(=O)[C@H](Cc2ccccc2)NC(=O)[C@H](COC(C)(C)C)NC(=O)[C@H](CC(C)C)N(C)C(=O)[C@H](Cc2ccccc2)NC(=O)[C@@H](C)N(C)C(=O)C[C@H](C)NC(=O)CNC(=O)[C@H](C)N(C)C(=O)[C@H](C)N(C)C1=O [DP-752] (cyclo(F[NMeL]S(tBu)FPTL[NMeA][NMeA]G[β3hA][dNMeA]))
microsomal CLint at 1 uM ([1]; human, pH 7.4, CL NADPH(+)): 33 µL/min/mg
Papp at 18 hours, 50 µM ([2]; pH 6.5): 6.2 ×10⁻⁶ cm/s

Compound: CC(C)C[C@@H]1NC(=O)[C@H](C)N(C)C(=O)[C@H]([C@@H](C)O)NC(=O)[C@H](Cc2ccccc2)N(C)C(=O)CNC(=O)[C@H](C(C)C)N(C)C(=O)[C@H](C(C)C)NC(=O)[C@H](C)N(C)C(=O)[C@H](Cc2ccccc2)NC(=O)[C@H](C)N(C)C(=O)[C@@H](C)N(C)C(=O)C[C@H](C)NC1=O [DP-753] (cyclo(F[NMeA]V[NMeV]G[NMeF]T[NMeA]L[β3hA][dNMeA][NMeA]))
microsomal CLint at 1 uM [1, 3]: 35 µL/min/mg
Papp at 18 hours, 50 µM [2, 4]: 10 ×10⁻⁶ cm/s

Compound: CC[C@H](C)[C@H]1C(=O)NCC(=O)N(C)[C@@H](Cc2ccccc2)C(=O)N[C@@H]([C@@H](C)O)C(=O)N(C)[C@@H](C)C(=O)N[C@@H](CC(C)C)C(=O)N[C@@H](C)CC(=O)N(C)[C@H](C)C(=O)N(C)[C@@H](C)C(=O)N[C@@H](Cc2ccccc2)C(=O)N(C)[C@@H](CC(C)C)C(=O)N[C@@H](C(C)C)C(=O)N1C [DP-755] (cyclo(F[NMeL]V[NMeI]G[NMeF]T[NMeA]L[β3hA][dNMeA][NMeA]))
microsomal CLint at 1 uM [1, 3]: 144 µL/min/mg
Papp at 18 hours, 50 µM [2, 4]: 36 ×10⁻⁶ cm/s

Results, then the compound that gave them:

microsomal CLint at 1 uM ([1]; human, pH 7.4, CL NADPH(+)): 41 µL/min/mg
Papp at 18 hours, 50 µM ([2]; pH 6.5): 32 ×10⁻⁶ cm/s
Compound: CC[C@H](C)[C@H]1C(=O)NCC(=O)N[C@@H](C)CC(=O)N(C)[C@H](C)C(=O)N[C@@H](Cc2ccccc2)C(=O)N(C)[C@@H](CC(C)C)C(=O)N[C@@H](COC(C)(C)C)C(=O)N[C@@H](Cc2ccccc2)C(=O)N2CCC[C@H]2C(=O)N[C@@H]([C@@H](C)O)C(=O)N[C@@H](CC(C)C)C(=O)N(C)[C@@H](C)C(=O)N1C [DP-754] (cyclo(F[NMeL]S(tBu)FPTL[NMeA][NMeI]G[β3hA][dNMeA]))

microsomal CLint at 1 uM ([1]; human, pH 7.4, CL NADPH(+)): 65 µL/min/mg
Papp at 18 hours, 50 µM ([2]; pH 6.5): 30 ×10⁻⁶ cm/s
Compound: CC[C@H](C)[C@H]1C(=O)N[C@@H](C)C(=O)N(C)[C@@H](CC(C)C)C(=O)N[C@@H](COC(C)(C)C)C(=O)N(C)[C@@H](CC(C)C)C(=O)N[C@@H](C)CC(=O)N(C)CCC(=O)N[C@@H](Cc2ccccc2)C(=O)N(C)[C@@H](Cc2ccccc2)C(=O)N(C)[C@@H](CC(C)C)C(=O)N[C@@H]([C@@H](C)O)C(=O)N(C)[C@@H](C)C(=O)N1C [DP-756] (cyclo(A[NMeL]S(tBu)[NMeL][β3hA][NMeβAla]F[NMeF][NMeL]T[NMeA][NMeI]))

microsomal CLint at 1 uM ([1]; human, pH 7.4, CL NADPH(+)): 124 µL/min/mg
Papp at 18 hours, 50 µM ([2]; pH 6.5): 33 ×10⁻⁶ cm/s
Compound: CC[C@H](C)[C@H]1C(=O)NCC(=O)N(C)[C@@H](Cc2ccccc2)C(=O)N[C@@H]([C@@H](C)O)C(=O)N(C)[C@@H](CC(C)C)C(=O)N[C@@H](CC(C)C)C(=O)N[C@@H](C)CC(=O)N(C)[C@H](C)C(=O)N(C)[C@@H](CC(C)C)C(=O)N[C@@H](Cc2ccccc2)C(=O)N(C)[C@@H](CC(C)C)C(=O)N[C@@H](C(C)C)C(=O)N1C [DP-757] (cyclo(F[NMeL]V[NMeI]G[NMeF]T[NMeL]L[β3hA][dNMeA][NMeL]))

microsomal CLint at 1 uM ([1]; human, pH 7.4, CL NADPH(+)): 59 µL/min/mg
Papp at 18 hours, 50 µM ([2]; pH 6.5): 24 ×10⁻⁶ cm/s
Compound: CC[C@H](C)[C@H]1C(=O)N[C@@H](CC(C)C)C(=O)N(C)[C@@H](CC(C)C)C(=O)N[C@@H](COC(C)(C)C)C(=O)N(C)[C@@H](CC(C)C)C(=O)N[C@@H](C)CC(=O)N(C)CCC(=O)N[C@@H](Cc2ccccc2)C(=O)N(C)[C@@H](Cc2ccccc2)C(=O)N(C)[C@@H](CC(C)C)C(=O)N[C@@H]([C@@H](C)O)C(=O)N(C)[C@@H](C)C(=O)N1C [DP-758] (cyclo(F[NMeF][NMeL]T[NMeA][NMeI]L[NMeL]S(tBu)[NMeL][β3hA][NMeβAla]))

microsomal CLint at 1 uM ([1]; human, pH 7.4, CL NADPH(+)): 144 µL/min/mg
Papp at 18 hours, 50 µM ([2]; pH 6.5): 27 ×10⁻⁶ cm/s
Compound: CC[C@H](C)[C@H]1C(=O)N(C)[C@@H](C)C(=O)N(C)[C@@H](CC(C)C)C(=O)N[C@@H](COC(C)(C)C)C(=O)N(C)[C@@H](CC(C)C)C(=O)N[C@@H](C)CC(=O)N(C)[C@@H](C)C(=O)N(C)[C@@H](Cc2ccccc2)C(=O)N[C@@H](C)C(=O)N(C)[C@@H](CC(C)C)C(=O)N[C@@H]([C@@H](C)O)C(=O)N[C@@H](Cc2ccccc2)C(=O)N1C [DP-759] (cyclo(A[NMeL]TF[NMeI][NMeA][NMeL]S(tBu)[NMeL][β3hA][NMeA][NMeF]))

microsomal CLint at 1 uM ([1]; human, pH 7.4, CL NADPH(+)): 194 µL/min/mg
Papp at 18 hours, 50 µM ([2]; pH 6.5): 28 ×10⁻⁶ cm/s
Compound: CC[C@H](C)[C@H]1C(=O)N[C@@H](C)C(=O)N(C)[C@@H](CC(C)C)C(=O)N[C@@H]([C@@H](C)O)C(=O)N[C@@H](Cc2ccccc2)C(=O)N(C)[C@@H](Cc2ccccc2)C(=O)N(C)[C@@H](CC(C)C)C(=O)N[C@@H](COC(C)(C)C)C(=O)N(C)[C@@H](CC(C)C)C(=O)N(C)[C@@H](C)C(=O)N[C@@H](C)CC(=O)N[C@H](C(C)C)C(=O)N1C [DP-760] (cyclo(A[NMeL]TF[NMeF][NMeL]S(tBu)[NMeL][NMeA][β3hA][dV][NMeI]))

microsomal CLint at 1 uM ([1]; human, pH 7.4, CL NADPH(+)): 118 µL/min/mg
Papp at 18 hours, 50 µM ([2]; pH 6.5): 9.2 ×10⁻⁶ cm/s
Compound: CC[C@H](C)[C@H]1C(=O)N(C)[C@@H](C)C(=O)N(C)[C@@H](CC(C)C)C(=O)N[C@@H](COC(C)(C)C)C(=O)N(C)[C@@H](CC(C)C)C(=O)N[C@@H](C)CC(=O)N(C)[C@@H](C)C(=O)N(C)[C@@H](Cc2ccccc2)C(=O)N[C@@H](CC(C)C)C(=O)N(C)[C@@H](CC(C)C)C(=O)N[C@@H]([C@@H](C)O)C(=O)N[C@@H](Cc2ccccc2)C(=O)N1C [DP-761] (cyclo(F[NMeI][NMeA][NMeL]S(tBu)[NMeL][β3hA][NMeA][NMeF]L[NMeL]T))

From US9409952B2, “Peptide-compound cyclization method” (Chugai Seiyaku Kabushiki Kaisha, priority 2011, dated 2016)
